Reference: ChEMBL document CHEMBL2150981, “Discovery and optimization of benzotriazine di-N-oxides targeting replicating and nonreplicating Mycobacterium tuberculosis” (J Med Chem, 2012)
Values after ≈ are worked out from the molar mass of the structure shown.

What was measured:
[1] = tested on: Mycobacterium tuberculosis; assay: Antitubercular activity against Mycobacterium tuberculosis H37Rv isolate ITR after 7 days by luminescence spectrometry; type: functional; details: 168 h
[2] = tested on: Mycobacterium tuberculosis; assay: Antitubercular activity against Mycobacterium tuberculosis H37Rv isolate SRI after 5 days by resazurin-based microplate assay; type: functional; details: 120 h
Vero = assay: Cytotoxicity against african green monkey Vero cells after 72 hrs by CellTiterGlo assay; details: chlorocebus sabaeus, vero, 72 h
[3] = Selectivity index, ratio of CC50 for Vero cells to MIC90 for Mycobacterium tuberculosis H37Rv isolate SRI; type: functional
[4] = tested on: Mycobacterium tuberculosis; assay: Antitubercular activity against Mycobacterium tuberculosis H37Rv incubated for 10 days in anaerobic condition followed by 48 hrs incubation in aerobic condition by LORA assay; type: functional

| SMILES | MIC90 [1] [µg/mL] | MIC90 [2] [µg/mL] | CC50 (Vero) [µg/mL] | Selectivity Index [3] | MIC90 [4] [µg/mL] |
| --- | --- | --- | --- | --- | --- |
| [O-][n+]1nc(N[C@@H]2C[C@H]3CC[C@@H]2C3)[n+]([O-])c2ccc(Br)cc21 | 0.36 (≈ 1.03 µM) | 0.31 (≈ 0.883 µM) | 0.8 (≈ 2.28 µM) | 2.6 | 0.41 (≈ 1.17 µM) |
| [O-][n+]1nc(NC2CCC2)[n+]([O-])c2ccc(Br)cc21 | 0.46 (≈ 1.48 µM) | 0.15 (≈ 0.482 µM) | 3.8 (≈ 12.2 µM) | 24 | 0.41 (≈ 1.32 µM) |
| [O-][n+]1nc(NC2CCCCC2)[n+]([O-])c2ccc(F)cc21 | 0.68 (≈ 2.44 µM) | 0.62 (≈ 2.23 µM) | < 2.5 | <4 | 0.47 (≈ 1.69 µM) |
| [O-][n+]1nc(N2CCOCC2)[n+]([O-])c2ccccc21 | 3.7 (≈ 14.9 µM) | 2.5 (≈ 10.1 µM) | 5.4 (≈ 21.8 µM) | 2.2 | 19 (≈ 76.5 µM) |
| CCCC(C)Nc1n[n+]([O-])c2ccccc2[n+]1[O-] (stereo unspecified) | 1.9 (≈ 7.65 µM) | 5 (≈ 20.1 µM) | 26 (≈ 105 µM) | 5.3 | 0.99 (≈ 3.99 µM) |
| CC(C)CCC(C)Nc1n[n+]([O-])c2ccccc2[n+]1[O-] (stereo unspecified) | 0.52 (≈ 1.88 µM) | 1.2 (≈ 4.34 µM) | 4.1 (≈ 14.8 µM) | 3.3 | 0.38 (≈ 1.38 µM) |
| [O-][n+]1nc(NC2CC2)[n+]([O-])c2ccc(F)cc21 | 0.93 (≈ 3.94 µM) | 0.31 (≈ 1.31 µM) | 1.3 (≈ 5.5 µM) | 2.2 | 3.5 (≈ 14.8 µM) |
| CC(=O)Nc1cc(/C=C\c2ccc([N+](=O)[O-])o2)ns1 | 3.8 (≈ 13.6 µM) | 0.98 (≈ 3.51 µM) | > 50 | >50 | 3.7 (≈ 13.2 µM) |
| COc1ccc2c(c1)[n+]([O-])nc(NC1CCC1)[n+]2[O-] | 0.96 (≈ 3.66 µM) | 0.62 (≈ 2.36 µM) | 9.8 (≈ 37.4 µM) | 16 | 0.9 (≈ 3.43 µM) |
| COc1cc2c(cc1C)[n+]([O-])nc(NC1CCC1)[n+]2[O-] | 5.1 (≈ 18.5 µM) | 2.5 (≈ 9.05 µM) | > 50 | >20 | 2.9 (≈ 10.5 µM) |
| CCN(CC)c1n[n+]([O-])c2ccccc2[n+]1[O-] | 0.46 (≈ 1.96 µM) | 0.31 (≈ 1.32 µM) | 12 (≈ 51.2 µM) | 40 | 1.3 (≈ 5.55 µM) |
| [O-][n+]1nc(NC2CC2)[n+]([O-])c2ccc(Cl)cc21 | 0.21 (≈ 0.831 µM) | 0.62 (≈ 2.45 µM) | 1.3 (≈ 5.15 µM) | 2.2 | 0.22 (≈ 0.871 µM) |
| COCCNC(=O)c1ccc2c(c1)[n+]([O-])c(O)c(C#N)[n+]2[O-] |  | > 20 | > 16 |  | > 32 |
| C[C@@H](Nc1n[n+]([O-])c2ccccc2[n+]1[O-])C1CCCCC1 | 0.92 (≈ 3.19 µM) | 1.2 (≈ 4.16 µM) | 8.9 (≈ 30.9 µM) | 7.1 | 0.36 (≈ 1.25 µM) |
| O=C(Cn1ccnc1[N+](=O)[O-])NCCO [ETANIDAZOLE] | > 32 | > 10 | > 16 |  | 26 (≈ 121 µM) |
| [O-][n+]1nc(N[C@@H]2C[C@H]3CC[C@@H]2C3)[n+]([O-])c2ccccc21 | 0.6 (≈ 2.2 µM) | 0.62 (≈ 2.28 µM) | 3.4 (≈ 12.5 µM) | 5.5 | 0.42 (≈ 1.54 µM) |
| COc1cc2c(cc1C)[n+]([O-])nc(N[C@@H]1C[C@H]3CC[C@@H]1C3)[n+]2[O-] | 5.6 (≈ 17.7 µM) | 5 (≈ 15.8 µM) | > 50 | >10 | 3.5 (≈ 11.1 µM) |
| CCNc1n[n+]([O-])c2cc(Cl)ccc2[n+]1[O-] | < 0.12 | 1.2 (≈ 4.99 µM) | 2.6 (≈ 10.8 µM) | 2.1 | 0.41 (≈ 1.7 µM) |
| CCNc1n[n+]([O-])c2cc(Br)ccc2[n+]1[O-] | 0.49 (≈ 1.72 µM) | 0.62 (≈ 2.17 µM) | 4.2 (≈ 14.7 µM) | 6.7 | 0.46 (≈ 1.61 µM) |
| COCCNC(=O)c1ccc2c(c1)[n+]([O-])c(C(C)=O)c(C)[n+]2[O-] | 27 (≈ 84.6 µM) | 10 (≈ 31.3 µM) | > 16 | >1.6 | > 32 |
| O=C1CN(/N=C/c2ccc([N+](=O)[O-])o2)C(=O)N1 [NITROFURANTOIN] | 28 (≈ 118 µM) | 16 (≈ 67.2 µM) | 23 (≈ 96.6 µM) | 1.1 | 32 (≈ 134 µM) |
| CSc1c(C)[n+]([O-])c2ccccc2[n+]1[O-] | 28 (≈ 126 µM) | 10 (≈ 45 µM) | > 16 | >1.6 | 9.4 (≈ 42.3 µM) |
| Cc1cccc2c1[n+]([O-])c(NC1CCCC1)n[n+]2[O-] | 0.43 (≈ 1.65 µM) | 0.31 (≈ 1.19 µM) | 3.7 (≈ 14.2 µM) | 12 | 0.27 (≈ 1.04 µM) |
| [O-][n+]1nc(NC2CC2)[n+]([O-])c2ccccc21 |  | 2.5 (≈ 11.5 µM) | 21 (≈ 96.2 µM) | 8.3 | 1.8 (≈ 8.25 µM) |
